# How the values were obtained:
# [1] = Renal uranium content in uranyl acetate-treated bile duct-cannulated rats (FIG. 3); type: in vivo, rat
# Method: Desferrithiocin Analogue Induced Excretion of Uranium. In order to compare results with previous chelator-induced iron excretion data, the uranium clearance studies were carried out in a bile duct-cannulated rat model. The animals were given uranyl acetate dihydrate SC at a dose of 5 mg/kg (the actual dose of uranium is 2.8 mg/kg). Bile and urine samples were collected for 24 hours after dosing. Kidneys were removed from selected animals and tissue uranium concentration measured. At least three animals were utilized in each experimental group. Data from two separate control studies (uranyl acetate/ no chelator) have now been combined for a total of 14 control animals. All uranium concentrations were measured using ICPMS. The data are reported as the total quantity of uranium excreted [urine +bile]; the mode of excretion [urine/bile] is also given. In addition the percentage of the administered dose of uranium cleared and chelator-induced uranium excretion vs the controls is also given. Four positive controls were evaluated: DTPA (13, Table 1) given as its trisodium calcium salt, DFO (14), N,N′-bis(2hydroxybenzyl)ethylenediamine-N,N′-diacetic acid, monosodium salt (NaHBED, 15) and the hydroxypyridone CP94 (16) shown to bind uranium [Pashalidis, et al., Effective complex formation in the interaction of 1,2-dimethyl-3-hydroxypyrid-4-one (Deferiprone or L1) with uranium(VI), Journal of Radioanalytical and Nuclear Chemistry 1999; 242:181-184.] The total metal cleared after 24 h in control rats was 10% of the administered dose. When DTPA, 13, was given IP or PO at 300 μmol/kg immediately after uranium, the excretion was 17% and 8% of the administered dose respectively (p>0.05). However, when the drug was given IP at a dose of 600 μmol/kg immediately post-metal, the uranium excretion was significant, 20% (p<0.005). This is consistent with previously published data using a similar animal model.[Domingo, et al., Comparative effects of the chelators sodium 4,5-dihydroxybenzene-1,3-disulfonate (Tiron) and diethylenetriaminepentaacetic acid (DTPA) on acute uranium nephrotoxicity in rats, Toxicology 1997; 118:49-59] DFO (14) and CP94 (16) given IP immediately post uranyl acetate were ineffective.
# The most promising analogue in the (S)-2-(2,4-dihydroxyphenyl)-4,5-dihydro-4-thiazolinecarboxylic series is the methoxy analogue (S)-4′-(CH3O)-DADMDFT (11). Given IP at 300 μmol/kg 0.5 h before uranyl acetate or immediately thereafter, nearly 30% of the metal was cleared (Table 1). This was also true if the drug was given IP 0.5 or 2 h post metal. The drug retains some efficacy given 4 h post uranium; 16% of the metal is excreted (p<0.006). When the chelator was given SC immediately post uranium, 40% of the administered metal was cleared. The increased excretion is probably associated with a slower absorption of the ligand. The data from rodents given the drug orally is even more encouraging (Table 1). […] The most profound data are associated with uranium decorporation from the kidneys (FIG. 3). When DTPA is given IP or PO at a dose of 300 μmol/kg immediately post metal, there is no reduction in renal uranium relative to controls. However, (S)-4′-(CH3O)-DADMDFT (11) given orally at a dose of 300 μmol/kg immediately post metal reduces renal uranium by 37% (p<0.005).
# There is a small (16%) reduction when the drug is given PO at a dose of 300 μmol/kg 2 h post uranium. However, when 11 is given PO at a dose of 600 μmol/kg 0.5 h post metal, the renal uranium content is reduced by 76% (p<0.001). When given PO at the same dose 1 h post uranium exposure, the reduction is still significant, 42% (p<0.006). In all sets of ligands, the most lipophilic chelator is always the most toxic. […] On the basis of this finding, a less lipophilic, more water-soluble ligand than 12 was assembled, (S)-4′-(HO)-DADFT-PE (18, Table 1), a polyether analogue.
# [2] = in vivo; cited from earlier work
# [3] = GLP toxicity and pharmacokinetics profile (NIH Roadmap Program); type: in vivo
# Excerpt: 7. This same ligand (11) has now been run through the NIH Roadmap Program and a complete GLP toxicity and pharmacokinetics profile is available.
# [4] = Chelator-induced uranium excretion (urine + bile, 24 h) in bile duct-cannulated rat model; type: in vivo
# Method in brief: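 Bile duct-cannulated rats received uranyl acetate dihydrate subcutaneously at 5 mg/kg, equal to 2.8 mg/kg uranium, and were then given a chelator. Urine and bile were collected for 24 hours and uranium was quantified by ICPMS. Results give total uranium excreted (urine + bile), the urine/bile split, the percentage of the administered dose cleared, and excretion relative to 14 pooled uranyl acetate-only controls. Each group had at least three animals.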
smiles,measurement,setting,value
"COc1ccc(C2=N[C@@H](C(=O)O)CS2)c(O)c1 [Compound 11, (S)-2-(2-hydroxy-4-methoxyphenyl)-4,5dihydro-4-thiazolecarboxylic acid]",reduction in renal uranium,[1]; PO 300 μmol/kg 2 h post uranium,16%
same,reduction in renal uranium relative to controls,[1]; PO 300 μmol/kg immediately post metal,37%
same,reduction in renal uranium content,[1]; PO 600 μmol/kg 0.5 h post metal,76%
same,reduction in renal uranium content,[1]; PO 600 μmol/kg 1 h post uranium exposure,42%
same,metabolite formed by metabolic O-demethylation,[2],(S)-4′-(HO)-DADMDFT (9)
same,no-observed-adverse-effect-level,[3],well within the range of expected human dosing requirements
same,% of Administered Dose Cleared,[4]; 300 μmol/kg IP 0.5 h Post,~30%
same,% of Administered Dose Cleared,"[4]; 300 μmol/kg IP 0.5 h Post, listed as (S)-4′-(CH3O)-DADMDFT",~30%
same,% of Administered Dose Cleared,[4]; 300 μmol/kg IP 0.5 h Pre,~30%
same,% of Administered Dose Cleared,"[4]; 300 μmol/kg IP 0.5 h Pre, listed as (S)-4′-(CH3O)-DADMDFT",~30%
same,% of Administered Dose Cleared,[4]; 300 μmol/kg IP 2 h Post,~30%
same,% of Administered Dose Cleared,[4]; 300 μmol/kg IP 4 h Post,16%
same,% of Administered Dose Cleared,[4]; 300 μmol/kg IP Immediate,~30%
same,% of Administered Dose Cleared,[4]; 300 μmol/kg PO 2 h Post,18%
same,% of Administered Dose Cleared,[4]; 300 μmol/kg PO Immediate,23%
same,% of Administered Dose Cleared,[4]; 300 μmol/kg SC Immediate,40%
same,% of Administered Dose Cleared,[4]; 600 μmol/kg PO 0.5 h Post,25%
same,% of Administered Dose Cleared,[4]; 600 μmol/kg PO 1 h Post,26%

# Source: patent US20100137346A1, “DESFE[…] ACTINIDE DEC[…]” (priority 2006, published 2010)
